Results reported in patent publication US5599793A, “Antithromobotic agents” (Eli Lilly and Company, priority 1995, dated 1997).

Each compound was assayed on Human plasma (assay: Human plasma anticoagulation, activated partial thromboplastin time (APTT)). Conditions: concentration required to double the APTT, linear extrapolation.
Assay type: biochemical
Description: Dog plasma and rat plasma is obtained from conscious mixed-breed hounds (either sex, Hazelton-LRE, Kalamazoo, Mich., U.S.A.) or from anesthetized male Sprague-Dawley rats (Harlan Sprague-Dawley, Inc., Indianapolis, Ind., U.S.A.) by venipuncture into 3.8 percent citrate. Fibrinogen is prepared from in-date ACD human blood as the fraction I-2 according to previous procedures and specifications. Smith, Biochem. J., 185, 1-11 (1980); and Smith, et al., Biochemistry, 11, 2958-2967 (1972). Human fibrinogen is also purchased as 98 percent pure/plasmin free from American Diagnostica, Greenwich, Conn. Coagulation reagents ACTIN, Thromboplastin, and Human plasma are from Baxter Healthcare Corp., Dade Division, Miami, Fla. Bovine thrombin from Parke-Davis ([…], Mich.) is used for coagulation assays in plasma.
Coagulation assay procedures are as previously described. Smith, et al., Thrombosis Research, 50, 163-174 (1988). A CoAScreener coagulation instrument (American LABor, Inc.) is used for all coagulation assay measurements. The prothrombin time (PT) is measured by adding 0.05 mL saline and 0.05 mL Thromboplastin-C reagent to 0.05 mL test plasma. The activated partial thromboplastin time (APTT) is measured by incubation of 0.05 mL test plasma with 0.05 mL Actin reagent for 120 seconds followed by 0.05 mL CaCl2 (0.02M). The thrombin time (TT) is measured by adding 0.05 mL saline and 0.05 mL thrombin (10 NIH units/mL) to 0.05 mL test plasma. The compounds of formula I are added to human or animal plasma over a wide range of concentrations to determine prolongation effects on the APTT, PT, and TT assays. Linear extrapolations are performed to estimate the concentrations required to double the clotting time for each assay.

SMILES	2x Clotting time, APTT
C[C@H]1C[C@@H](C(=O)N[C@H](C=O)CCCNC(=N)N)N(C(=O)[C@H]2CCCCN2)C1.Cl.Cl (relative stereo) [Example 1, D-homoprolyl-L-cis-4-methyl-prolyl-L-argininal dihydrochloride]	510 ng/mL
CC[C@H]1C[C@@H](C(=O)N[C@H](C=O)CCCNC(=N)N)N(C(=O)[C@H]2CCCCN2)C1.Cl.Cl (relative stereo) [Example 2, D-homoprolyl-L-cis-4-ethyl-prolyl-L-argininal dihydrochloride]	460 ng/mL
CCC[C@H]1C[C@@H](C(=O)N[C@H](C=O)CCCNC(=N)N)N(C(=O)[C@H]2CCCCN2)C1.Cl.Cl (relative stereo) [Example 3, D-hPro-Pro(4-cis-n-propyl)-ArgH.2 HCl]	610 ng/mL
Cl.Cl.N=C(N)NCCC[C@@H](C=O)NC(=O)[C@@H]1C[C@H](Cc2ccccc2)CN1C(=O)[C@H]1CCCCN1 (relative stereo) [Example 5, D-hPro-Pro(4-cis-benzyl)-ArgH.2 HCl]	510 ng/mL
Cl.Cl.N=C(N)NCCC[C@@H](C=O)NC(=O)[C@@H]1CC2CCCCC2N1C(=O)[C@H]1CCCCN1 (relative stereo) [Example 7, N-[(1-D-homoprolyl-cis-octahydro-1H-indol-2(S)-yl)carbonyl]-L-argininal dihydrochloride]	450 ng/mL
Cl.Cl.N=C(N)NCCC[C@H](C=O)NC(=O)[C@@H]1C[C@H](Oc2ccccc2)CN1C(=O)[C@H]1CCCCN1 (relative stereo) [Example 8, D-homoprolyl-L-cis-4-phenoxy-L-prolyl-D-argininal dihydrochloride]	520 ng/mL
Cl.Cl.Cl.N=C(N)NCCC[C@@H](C=O)NC(=O)[C@@H]1C[C@H](Oc2cccnc2)CN1C(=O)[C@H]1CCCCN1 (relative stereo) [Example 9, D-hPro-Pro(4-cis-(3-pyridyloxy))-ArgH.3 HCl]	880 ng/mL
Cl.Cl.Cl.N=C(N)NCCC[C@@H](C=O)NC(=O)[C@@H]1C[C@H](Oc2ccc(N)cc2)CN1C(=O)[C@H]1CCCCN1 (relative stereo) [Example 11, D-hPro-Pro(4-cis-(4-NH2-phenoxy))-ArgH.3 HCl]	1,400 ng/mL
Cl.Cl.N=C(N)NCCC[C@@H](C=O)NC(=O)[C@@H]1C[C@H](Oc2ccccc2)CN1C(=O)C1NCCC2CCCCC21 (relative stereo) [Example 15, D-1-Piq-Pro(4-cis-phenoxy)-ArgH.2 HCl]	940 ng/mL
CCS(=O)(=O)N[C@@H](C(=O)N1[C@H](C(=O)N[C@H](C=O)CCCNC(=N)N)C[C@@H]2CCCC[C@@H]21)c1ccccc1.Cl (relative stereo) [Example 22, EtSO2 -D-Phg-cis-Ohi-ArgH.HCl]	332 ng/mL

Same assay, conditions: concentration required to double the APTT, linear extrapolation, HCl

SMILES	2x Clotting time, APTT
Cl.Cl.N=C(N)NCCCC(C=O)NC(=O)C1CC2CCCCC2N1C(=O)C1NCCC2CCCCC21 [Example 20, D-1-cis-Piq-cis-Ohi-ArgH.2 HCl]	627 ng/mL
